Consider one molecule from patent publication EP2276483B1, “SOLID FORMS COMPRISING (+)-2-[1-(3-ETHOXY-4-METHOXYPHENYL)-2-METHYLSULFONYLETHYL]-4-ACETYLAMINOISOINDOLINE-1,3-DIONE, COMPOSITIONS THEREOF, AND USES THEREOF” (CELGENE CORPORATION, priority 2008, dated 2009).

One series deals with TNF-α. Nature of the series: IL-1β-induced TNF-α production from human PBMC. It is filed as cell-based. The conditions noted are these: 50 ng/ml recombinant human IL-1β. As for the experimental part:
During the course of inflammatory diseases, TNF-α production is often stimulated by the cytokine 1L-1β, rather than by bacterially derived LPS. Compounds were tested for the ability to inhibit IL-1β-induced TNF-α production from human PBMC as described above for LPS-induced TNF-α production, except that the PBMC were isolated from source leukocyte units (Sera-Tec Biologicals, North Brunswick, NJ, USA) by centrifugation on Ficoll-Paque Plus (Amersham Pharmacia, Piscataway, NJ, USA), plated in 96-well tissue culture plates at 3 x 10^5 cells/well in RPMI-1640 medium (BioWhittaker, Walkersville, Maryland, USA) containing 10% heat-inactivated fetal bovine serum (Hyclone), 2 mM L-glutamine, 100 U/ml penicillin, and […] (complete medium), pretreated with compounds at 10, 2, 0.4, 0.08, 0.016, 0.0032, 0.00064, and 0 µM in duplicate at a final DMSO concentration of 0.1% at 37 °C in a humidified incubator at 5% CO2 for one hour, then stimulated with 50 ng/ml recombinant human IL-1β (Endogen) for 18 hours.

The next series deals with LTB4. The series can be described thus: fMLF-induced LTB4 production in neutrophils. It is filed as cell-based. The note with it: Neutrophil; human neutrophils; 1 µM fMLF. As for the experimental part:
N-formyl-methionine-leucine-phenylalanine (fMLF) is a bacterially derived peptide that activates neutrophils to rapidly degranulate, migrate, adhere to endothelial cells, and release leukotriene LTB4, a product of arachidonic acid metabolism and itself a neutrophil chemoattractant. Compounds were tested for the ability to block fMLF-induced neutrophil LTB4 production as previously described (Hatzelmann and Schudt, 2001, J. Pharm. Exp. Ther., 297:267-279), with the following modifications. Neutrophils were isolated as described above and resuspended in phosphate-buffered saline without calcium or magnesium (BioWhittaker) containing 10 mM HEPES pH 7.2 and plated in 96-well tissue culture plates at a concentration of 1.7 x 10^6 cells/well. Cells were treated with 50 µM thimerosal (Sigma)/1 mM CaCl2/1 mM MgCl2 for 15 minutes at 37°C 5% CO2, then treated with compounds at 1000, 200, 40, 8, 1.6, 0.32, 0.064, and 0 nM in a final DMSO concentration of 0.01 % in duplicate for 10 minutes. Neutrophils were stimulated with 1 µM fMLF for 30 minutes, then lysed by the addition of methanol (20% final concentration) and frozen in a dry ice/isopropanol bath for 10 minutes. Lysates were stored at -70°C until the LTB4 content was measured by competitive LTB4 ELISA (R&D Systems).

The test system of the next series is CD18. Nature of the series: fMLF-induced CD18 expression on neutrophils. Format: cell-based. The conditions noted are these: Neutrophil; human neutrophils; 30 nM fMLF. As for the experimental part:
CD18/CD11b (Mac-1) expression on neutrophils was measured as previously described (Derian et al., 1995, J. Immunol., 154:308-3 17) with the following modifications. Neutrophils were isolated as described above, then resuspended in complete medium at 1x10^6 cells/ml, pretreated with compounds at 10, 1, 0.1, 0.01, and 0 µM in duplicate at a final DMSO concentration of 0.1% for 10 minutes at 37°C 5%CO2. Cells were then stimulated with 30 nM fMLF for 30 minutes and then chilled to 4°C. Cells were treated with rabbit IgG (Jackson ImmunoResearch Labs, West Grove, PA, USA) (10 µg/1x10^6 cells) to block Fc receptors, stained with CD18-FITC and CD11b-PE (Becton Dickinson), and analyzed by flow cytometry on a FACSCalibur. CD18/CD11b expression (mean fluorescence) in the absence of stimulation was subtracted from all samples to obtain inhibition curves and calculate IC50 values.

Series [1] can be described thus: Aqueous equilibrium solubility in pH 7.4 buffer. The conditions noted are these: pH 7.4. It is filed as physicochemical. As for the experimental part: Equilibrium solubilities were measured in pH 7.4 aqueous buffer. The pH 7.4 buffer was prepared by adjusting the pH of a 0.07 M NaH2PO4 solution to 7.4 with 10 N NaOH. The ionic strength of the solution was 0.15. At least 1 mg of powder was combined with 1 ml of buffer to make >1 mg/ml mixture. These samples were shaken for >2 hours and left to stand overnight at room temperature. The samples were then filtered through a 0.45-µm Nylon syringe filter that was first saturated with the sample. The filtrate was sampled twice, consecutively. The filtrate was assayed by HPLC against standards prepared in 50% methanol.

The test system of series [2] is subjects with moderate to severe plaque-type psoriasis. Nature of the series: Phase 2 randomized double-blind placebo-controlled study in moderate to severe plaque-type psoriasis. Format: in vivo, human. As for the experimental part:
This phase 2, multicenter, randomized, double-blind, placebo-controlled, parallel-group, dose-comparison study evaluated the efficacy and safety of Compound A in subjects with moderate to severe plaque-type psoriasis who were candidates for systemic therapy.
This study included a 12-week treatment phase followed by a 4-week observational follow-up phase. A total of 260 subjects were randomized to receive Compound A 20 mg BID, Compound A 20 mg QD, or placebo for 12 weeks. The primary endpoint for this study was the proportion of subjects treated with Compound A who achieved a 75% reduction in Psoriasis Area and Severity Index score ("PASI-75") at week 12/last treatment in reference to the baseline visit. Last treatment is defined as the last PASI assessment completed during the 12-week treatment phase.

Setting [3] is: 20 mg BID, week 12/last treatment.

As usually defined, the IC50 is the point on the concentration scale where inhibition reaches its midpoint. As for `CCOc1cc(C(CS(C)(=O)=O)N2C(=O)c3cccc(NC(C)=O)c3C2=O)ccc1OC` (single isomer, unassigned; (+)) [Compound A, (+)-2-[1-(3-ethoxy-4-methoxyphenyl)-2-methylsulfonylethyl]-4-acetylaminoisoindoline-1,3-dione], the IC50 in the series on TNF-α amounted to 83 nM. For the same molecule, in the series with LTB4, the IC50 is 2.48 nM. In the series with CD18, this molecule yielded an IC50 of 390 nM. In addition, in series [1], the Measured solubility was 12 µg/mL and the “greater aqueous solubility than the racemic mixture” value worked out at 3.5 fold. Moreover, the “study drug-related serious adverse events” value in series [2] (20 mg BID or 20 mg QD for 12 weeks) is given as “No study drug-related serious adverse events”. Also, in series [2] (setting [3]), the “mean decrease in PASI from baseline” value came out at 52%, the “proportion of subjects who achieved PASI-50” value is recorded as 57% and the “proportion of subjects who achieved PASI-90” value is reported as 14%. Besides, in series [2] (20 mg BID, week 12/last treatment, P=0.023 vs placebo), the “proportion of subjects who achieved a PASI-75” value is 24%. The tolerability and safety entry in series [2] (12 weeks of treatment) was “well tolerated and safe”.
